Results reported in ChEMBL document CHEMBL1201862, “PubChem BioAssay data set” (2004).
Active and inactive are the calls of the source.

Legend:
[1] = target: Protein disulfide-isomerase (Homo sapiens, UniProt P07237); experiment: PDI inhibitors, insulin turbidity readout, confirmation, biochemical, dry powder samples, set 2 (AID 652146)
NS3 = NS3 (Hepatitis C virus, UniProt A3EZJ3); experiment: HCV NS3 helicase inhibitor potency, dose response, biochemical, fluorescence polarization, ChemBridge library (AID 743264)
Chain of NS3 (A3EZJ3 whole entry): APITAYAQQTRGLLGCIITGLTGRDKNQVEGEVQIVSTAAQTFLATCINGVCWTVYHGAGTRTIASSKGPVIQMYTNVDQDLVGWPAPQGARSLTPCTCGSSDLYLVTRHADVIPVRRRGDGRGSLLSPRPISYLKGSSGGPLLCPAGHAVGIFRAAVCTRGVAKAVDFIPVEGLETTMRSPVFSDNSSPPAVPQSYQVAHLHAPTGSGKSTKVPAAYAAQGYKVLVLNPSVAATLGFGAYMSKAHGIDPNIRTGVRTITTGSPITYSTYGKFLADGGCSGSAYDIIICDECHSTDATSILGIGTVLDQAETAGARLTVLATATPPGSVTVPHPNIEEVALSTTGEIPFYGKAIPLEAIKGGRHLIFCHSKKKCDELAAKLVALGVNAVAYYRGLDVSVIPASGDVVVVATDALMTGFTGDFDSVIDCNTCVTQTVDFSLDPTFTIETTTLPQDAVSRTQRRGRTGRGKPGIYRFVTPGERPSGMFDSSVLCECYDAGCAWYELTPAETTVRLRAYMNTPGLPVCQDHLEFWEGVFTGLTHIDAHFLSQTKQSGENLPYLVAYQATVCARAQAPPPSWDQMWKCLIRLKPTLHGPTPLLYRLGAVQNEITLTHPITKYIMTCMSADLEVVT

[2] = target: Potassium channel subfamily K member 9 (Homo sapiens, UniProt Q9NPC2); experiment: TASK3 (KCNK9) channel inhibitors, thallium flux, SAR follow-up, selectivity assay for TASK1 inhibitor project, cell-based, FluxOR thallium flux, concentration-response (AID 652211); assay type: functional;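 note: potency is for inhibitors of the channel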
Chain of Potassium channel subfamily K member 9 (Q9NPC2 whole entry): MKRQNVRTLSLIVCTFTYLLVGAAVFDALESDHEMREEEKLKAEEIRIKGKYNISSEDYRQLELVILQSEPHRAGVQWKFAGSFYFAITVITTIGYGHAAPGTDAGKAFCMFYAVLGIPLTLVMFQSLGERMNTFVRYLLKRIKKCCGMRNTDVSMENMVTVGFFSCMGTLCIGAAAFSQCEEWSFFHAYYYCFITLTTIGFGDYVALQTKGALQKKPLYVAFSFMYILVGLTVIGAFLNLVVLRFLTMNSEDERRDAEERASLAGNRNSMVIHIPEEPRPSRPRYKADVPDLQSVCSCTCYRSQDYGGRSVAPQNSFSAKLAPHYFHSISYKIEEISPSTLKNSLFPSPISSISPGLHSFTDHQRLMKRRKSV

[3] = target: Voltage-gated inwardly rectifying potassium channel KCNH2 (Homo sapiens, UniProt Q12809); experiment: hERG channel inhibition in selectivity testing, SAR follow-up, selectivity assay for TASK1 inhibitor project, FluxOR thallium flux, concentration-response, CHO cells (AID 652194); assay type: functional, cell-based
[4] = target: Potassium channel subfamily K member 3 (Homo sapiens, UniProt O14649); experiment: TASK1 (KCNK3) potassium channel inhibitors, SAR follow-up, CHO cells, FluxOR thallium flux (AID 652212); assay type: functional
[5] = target: T1, Oxysterols receptor LXR-beta (Homo sapiens, UniProt P55055); assay type: functional, cell-based;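 note: agonist activity at LXR measured by a cell-based luminescence readout across a dose range, run as a counterscreen for daf-12 agonists; HEK293 cells with Gal4-LXR fusion and GAL4-driven luciferase reporter; potency for activation of Gal4-LXR reporter so compounds are agonists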
T1 sequence (P55055 whole entry): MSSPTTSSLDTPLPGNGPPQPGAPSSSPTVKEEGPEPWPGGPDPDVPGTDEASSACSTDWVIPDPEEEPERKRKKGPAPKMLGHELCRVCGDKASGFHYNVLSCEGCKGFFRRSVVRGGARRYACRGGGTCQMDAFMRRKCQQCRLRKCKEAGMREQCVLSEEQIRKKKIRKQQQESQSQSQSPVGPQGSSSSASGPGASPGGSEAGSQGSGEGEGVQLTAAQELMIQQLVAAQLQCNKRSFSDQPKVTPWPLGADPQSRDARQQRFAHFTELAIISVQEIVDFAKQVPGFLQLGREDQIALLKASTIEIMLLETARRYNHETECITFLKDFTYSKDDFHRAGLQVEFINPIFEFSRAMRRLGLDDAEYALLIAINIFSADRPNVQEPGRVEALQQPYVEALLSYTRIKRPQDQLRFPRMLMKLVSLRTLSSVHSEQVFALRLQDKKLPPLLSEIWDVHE

[6] = system: Streptococcus sp. 'group A'; experiment: growth inhibition of control SK(-) GAS strain, dose response, counter-screen for streptokinase expression inhibitor project, luminescence, kanamycin, BacTiterGlo, confirmation (AID 1900); assay type: functional, organism-based
Streptokinase A = target: T2, Streptokinase A (Streptococcus pyogenes serotype M1, UniProt P10520); experiment: S. pyogenes streptokinase expression inhibitors, potency, dose response, plasminogen activation absorbance, OD405 (AID 1914); assay type: functional, Streptococcus pyogenes M1 GAS;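 note: secreted streptokinase activity via plasminogen activation per viability signal from cell pellet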
T2 sequence (P10520 whole entry): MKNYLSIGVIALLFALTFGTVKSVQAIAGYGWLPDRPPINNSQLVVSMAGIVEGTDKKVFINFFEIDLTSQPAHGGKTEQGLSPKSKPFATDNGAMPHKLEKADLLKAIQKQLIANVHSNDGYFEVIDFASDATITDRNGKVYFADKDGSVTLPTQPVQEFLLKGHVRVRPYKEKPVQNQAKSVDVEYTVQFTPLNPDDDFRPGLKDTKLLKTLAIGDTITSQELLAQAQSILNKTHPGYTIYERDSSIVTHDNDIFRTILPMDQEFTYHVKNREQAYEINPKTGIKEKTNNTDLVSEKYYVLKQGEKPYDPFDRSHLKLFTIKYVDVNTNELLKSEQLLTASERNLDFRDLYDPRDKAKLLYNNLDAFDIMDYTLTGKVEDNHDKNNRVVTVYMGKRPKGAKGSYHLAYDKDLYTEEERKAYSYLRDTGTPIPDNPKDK

[7] = inhibitors of intracellular T. cruzi replication, confirmation, NIH3T3 host cells, beta-gal luminescence (AID 2044); assay type: functional, cell-based;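 note: intracellular parasites grown in NIH/3T3 mouse fibroblasts as host cells; luminescent beta-galactosidase reporter signal from transgenic T. cruzi replicating inside host cells; inhibitors lower the luminescence signal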
[8] = cytotoxicity toward NIH3T3 fibroblasts, dose response, counter-screen, cell-based, ATP luminescence, mouse fibroblasts (AID 2010); assay type: functional;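 note: cells exposed to compound for about 90 hours before reading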
Streptococcus = experiment: Group A Streptococcus viability loss, dose response, counter-screen for streptokinase expression inhibitor project, luminescence, BacTiterGlo (AID 1915); assay type: functional, organism-based;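 note: potency for reduction of bacterial viability or growth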
[9] = HepG2 cell cytotoxicity, dose response, cytotoxicity control, ATP luminescence, cherry-pick, activator set 2 (AID 1053143); assay type: functional, cell-based
SUMO-activating enzyme [10] = target: T3, SUMO-activating enzyme (Homo sapiens, UniProt Q9UBT2); experiment: SUMOylation inhibitor hit validation, confirmation, SUMOylation inhibitor project, biochemical, AlphaScreen (AID 2018); assay type: functional
T3 sequence (Q9UBE0 whole entry): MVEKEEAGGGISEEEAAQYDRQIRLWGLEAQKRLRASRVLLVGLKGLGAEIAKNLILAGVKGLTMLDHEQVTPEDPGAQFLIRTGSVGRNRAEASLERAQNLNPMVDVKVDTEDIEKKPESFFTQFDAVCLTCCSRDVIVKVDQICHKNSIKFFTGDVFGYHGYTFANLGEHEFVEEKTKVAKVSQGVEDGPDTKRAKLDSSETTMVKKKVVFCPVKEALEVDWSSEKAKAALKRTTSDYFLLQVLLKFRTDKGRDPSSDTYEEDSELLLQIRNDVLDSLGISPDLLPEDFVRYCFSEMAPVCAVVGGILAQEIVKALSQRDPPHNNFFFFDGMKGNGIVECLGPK
T3 sequence (Q9UBT2 whole entry): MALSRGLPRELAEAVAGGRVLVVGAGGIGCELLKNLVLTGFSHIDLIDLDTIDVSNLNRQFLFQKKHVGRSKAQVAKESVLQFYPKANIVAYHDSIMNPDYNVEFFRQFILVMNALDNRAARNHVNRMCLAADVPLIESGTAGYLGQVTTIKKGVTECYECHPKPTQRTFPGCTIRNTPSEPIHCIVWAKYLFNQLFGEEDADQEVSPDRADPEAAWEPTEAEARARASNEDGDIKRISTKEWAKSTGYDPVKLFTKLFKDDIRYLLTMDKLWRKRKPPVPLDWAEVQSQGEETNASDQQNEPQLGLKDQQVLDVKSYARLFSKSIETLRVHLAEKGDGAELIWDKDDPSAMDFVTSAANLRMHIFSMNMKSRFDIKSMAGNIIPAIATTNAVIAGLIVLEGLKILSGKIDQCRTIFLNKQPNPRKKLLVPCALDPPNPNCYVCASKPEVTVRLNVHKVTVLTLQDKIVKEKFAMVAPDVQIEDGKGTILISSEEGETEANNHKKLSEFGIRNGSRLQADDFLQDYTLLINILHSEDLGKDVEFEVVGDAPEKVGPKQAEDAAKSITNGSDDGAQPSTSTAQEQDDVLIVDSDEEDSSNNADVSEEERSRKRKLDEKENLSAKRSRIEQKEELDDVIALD

[11] = target: Luciferin 4-monooxygenase (Photinus pyralis, UniProt P08659); experiment: firefly luciferase enzyme inhibitors, dose response, biochemical, luminescence (AID 1891)
[12] = Luminescence Cell-Based Dose Confirmation HTS to Identify Inhibitors of Platelet Dense Granule Release. [Related pubchem assays: 1663 (Primary HTS), 1678 (Summary of Project)]; assay type: functional
SUMO-activating enzyme [13] = target: T3, SUMO-activating enzyme; experiment: inhibitors of in vitro SUMOylation cascade, primary screen, biochemical, HTRF, uHTS (AID 2006); assay type: protein-complex assay
[14] = target: Heat shock protein HSP 90-alpha (Homo sapiens, UniProt P07900); assay type: functional, organism-based
[15] = target: 1-phosphatidylinositol 4,5-bisphosphate phosphodiesterase gamma-1 (Homo sapiens, UniProt P19174); experiment: Counterscreen for inhibitors of phospholipase C isozymes (PLC-B3): Fluorescence-based biochemical high throughput dose response assay to identify inhibitors of phospholipase C isozymes (PLC-gamma1).
Chain of 1-phosphatidylinositol 4,5-bisphosphate phosphodiesterase gamma-1 (P19174 whole entry): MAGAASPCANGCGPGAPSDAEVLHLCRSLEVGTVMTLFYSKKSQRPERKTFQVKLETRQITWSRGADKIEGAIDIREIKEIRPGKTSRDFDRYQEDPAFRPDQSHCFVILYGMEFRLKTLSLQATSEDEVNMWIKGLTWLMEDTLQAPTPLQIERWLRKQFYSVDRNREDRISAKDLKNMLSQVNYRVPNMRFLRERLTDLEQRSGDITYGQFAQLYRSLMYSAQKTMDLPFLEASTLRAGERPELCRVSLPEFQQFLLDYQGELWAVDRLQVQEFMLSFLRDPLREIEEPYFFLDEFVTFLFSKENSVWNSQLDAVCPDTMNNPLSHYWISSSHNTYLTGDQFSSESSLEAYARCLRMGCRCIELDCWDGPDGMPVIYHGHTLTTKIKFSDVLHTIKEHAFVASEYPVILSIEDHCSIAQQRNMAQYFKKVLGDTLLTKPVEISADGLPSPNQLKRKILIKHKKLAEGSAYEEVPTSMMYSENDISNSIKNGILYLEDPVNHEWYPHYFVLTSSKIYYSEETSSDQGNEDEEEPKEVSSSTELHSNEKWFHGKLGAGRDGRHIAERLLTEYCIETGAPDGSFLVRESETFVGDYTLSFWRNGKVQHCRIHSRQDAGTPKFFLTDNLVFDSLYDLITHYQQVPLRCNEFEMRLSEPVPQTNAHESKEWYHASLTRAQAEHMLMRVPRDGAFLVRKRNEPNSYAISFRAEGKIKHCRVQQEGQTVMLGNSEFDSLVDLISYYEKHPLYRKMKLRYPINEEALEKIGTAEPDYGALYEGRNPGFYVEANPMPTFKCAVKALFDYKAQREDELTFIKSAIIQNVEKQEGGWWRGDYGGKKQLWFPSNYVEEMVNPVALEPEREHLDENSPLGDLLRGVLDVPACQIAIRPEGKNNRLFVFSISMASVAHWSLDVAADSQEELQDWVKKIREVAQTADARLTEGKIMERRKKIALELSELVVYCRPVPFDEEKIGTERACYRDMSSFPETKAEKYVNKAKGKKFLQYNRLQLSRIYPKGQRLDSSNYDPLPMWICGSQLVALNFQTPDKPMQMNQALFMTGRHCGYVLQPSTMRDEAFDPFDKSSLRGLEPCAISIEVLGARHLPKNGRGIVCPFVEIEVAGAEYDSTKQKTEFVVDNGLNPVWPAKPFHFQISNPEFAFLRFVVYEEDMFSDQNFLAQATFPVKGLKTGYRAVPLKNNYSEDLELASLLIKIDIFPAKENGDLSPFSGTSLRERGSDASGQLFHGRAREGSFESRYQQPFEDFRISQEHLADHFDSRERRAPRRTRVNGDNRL

[16] = target: 1-phosphatidylinositol 4,5-bisphosphate phosphodiesterase beta-3 (Homo sapiens, UniProt Q01970); experiment: Fluorescence-based biochemical high throughput dose response assay to identify inhibitors of phospholipase C isozymes (PLC-B3).
Chain of 1-phosphatidylinositol 4,5-bisphosphate phosphodiesterase beta-3 (Q01970 whole entry): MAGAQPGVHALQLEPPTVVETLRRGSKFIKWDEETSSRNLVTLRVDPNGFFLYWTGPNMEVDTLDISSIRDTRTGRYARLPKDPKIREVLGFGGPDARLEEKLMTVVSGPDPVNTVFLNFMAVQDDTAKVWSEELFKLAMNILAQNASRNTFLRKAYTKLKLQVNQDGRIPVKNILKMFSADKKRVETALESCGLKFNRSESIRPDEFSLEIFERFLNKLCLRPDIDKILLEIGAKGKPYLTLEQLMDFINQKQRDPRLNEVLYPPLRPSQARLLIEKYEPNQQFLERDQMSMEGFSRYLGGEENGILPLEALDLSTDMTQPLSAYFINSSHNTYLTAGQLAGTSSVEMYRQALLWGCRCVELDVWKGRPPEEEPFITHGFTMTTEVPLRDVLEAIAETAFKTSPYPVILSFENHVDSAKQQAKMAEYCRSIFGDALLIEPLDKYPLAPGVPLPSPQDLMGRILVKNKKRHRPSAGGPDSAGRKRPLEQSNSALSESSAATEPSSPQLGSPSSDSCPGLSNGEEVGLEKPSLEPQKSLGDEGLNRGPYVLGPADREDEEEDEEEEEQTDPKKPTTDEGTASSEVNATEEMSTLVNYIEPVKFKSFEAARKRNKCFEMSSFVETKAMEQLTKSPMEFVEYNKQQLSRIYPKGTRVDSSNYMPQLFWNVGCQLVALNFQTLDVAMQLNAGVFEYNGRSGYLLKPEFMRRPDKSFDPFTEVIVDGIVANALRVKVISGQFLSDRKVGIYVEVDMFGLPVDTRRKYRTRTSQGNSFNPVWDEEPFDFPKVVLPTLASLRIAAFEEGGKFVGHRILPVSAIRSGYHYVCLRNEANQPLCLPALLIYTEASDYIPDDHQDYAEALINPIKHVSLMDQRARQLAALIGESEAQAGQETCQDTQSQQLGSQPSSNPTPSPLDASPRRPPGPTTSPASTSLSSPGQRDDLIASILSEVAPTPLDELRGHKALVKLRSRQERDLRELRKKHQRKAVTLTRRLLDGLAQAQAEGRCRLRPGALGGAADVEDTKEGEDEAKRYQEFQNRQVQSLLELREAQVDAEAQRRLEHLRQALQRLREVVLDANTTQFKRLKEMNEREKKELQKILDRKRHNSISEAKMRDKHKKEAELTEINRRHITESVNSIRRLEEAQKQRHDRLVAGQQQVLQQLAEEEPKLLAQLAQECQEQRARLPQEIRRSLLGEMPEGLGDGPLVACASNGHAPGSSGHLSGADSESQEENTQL

Chain of Protein disulfide-isomerase (P07237 whole entry): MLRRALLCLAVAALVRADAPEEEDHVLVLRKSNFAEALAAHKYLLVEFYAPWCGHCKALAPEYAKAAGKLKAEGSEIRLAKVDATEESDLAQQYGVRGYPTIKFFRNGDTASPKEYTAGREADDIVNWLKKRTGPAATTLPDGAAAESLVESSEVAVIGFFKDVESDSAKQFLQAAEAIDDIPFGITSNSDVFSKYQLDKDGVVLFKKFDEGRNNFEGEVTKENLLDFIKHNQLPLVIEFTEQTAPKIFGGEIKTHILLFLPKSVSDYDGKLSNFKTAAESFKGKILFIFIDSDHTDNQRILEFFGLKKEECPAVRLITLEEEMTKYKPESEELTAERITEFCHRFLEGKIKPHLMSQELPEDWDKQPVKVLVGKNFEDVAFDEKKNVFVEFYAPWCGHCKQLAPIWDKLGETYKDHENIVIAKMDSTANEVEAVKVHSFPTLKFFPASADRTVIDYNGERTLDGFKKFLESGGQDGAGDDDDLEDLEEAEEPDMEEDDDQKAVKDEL

## CCOC(=O)C1(CCOc2ccccc2)CCN(Cc2ccc(OC)c(Cl)c2)CC1
[1]
  AC50: > 30 µM (inactive)

## Cc1ccc(N2C(=O)NC(=O)/C(=C\c3ccc(-c4ccc(Cl)c(C(=O)O)c4)o3)C2=O)cc1
NS3
  IC50: 133 µM (active)

## COc1ccccc1NC(=O)c1cccc(NC(=O)C2CCCC2)c1
[2]
  IC50: 1.55 µM (active)
[3]
  IC50: 43.5 µM (active)
[4]
  IC50: 0.238 µM (active)

## Cc1ccc2nc(C)/c(=N\O)c(C)nc2c1
[5]
  EC50: > 67.6 µM (inactive)

## Cc1nn(-c2ccccc2)c(C)c1/C=N/Nc1nc2ccccc2[nH]1
[6]
  EC50: 7.89 µM (active)
Streptokinase A
  EC50: > 150 µM (not active)
[7]
  EC50: 2.15 µM (active)
[8]
  EC50: > 60 µM (not active)
Streptococcus
  EC50: > 150 µM (not active)
[9]
  AC50: 26 µM (active)

## Nc1ncnc2c1ncn2[C@@H]1O[C@H](COP(=O)(O)O)[C@@H](O)[C@@H]1O
SUMO-activating enzyme [10]
  IC50: 7.95 µM (active)
[11]
  EC50: 1.08 µM (active)
[12]
  EC50: 0.946 µM (active)
SUMO-activating enzyme [13]
  IC50: 16.6 µM (active)
[14]
  AC50: 1.92 µM (active)
[15]
  IC50: 8.71 µM (active)
[16]
  IC50: > 122 µM (inactive)
